Measured values taken from patent US10112925B2, “Methods for the preparation of charged crosslinkers” (IMMUNOGEN, INC., priority 2010, dated 2018).

Assays:
[1] = Gravimetric vapour sorption (GVS) moisture sorption isotherm; format: physicochemical; conditions: 25° C.; for weight gain, adsorption profile (GVS): between 40% RH and 90% RH; for weight loss, desorption profile (GVS): between 90% RH and 0% RH
Protocol: Sorption isotherms were obtained using a SMS DVS Intrinsic moisture sorption analyser, controlled by DVS Intrinsic Control software v1.0.0.30. The sample temperature was maintained at 25° C. by the instrument controls. The humidity was controlled by mixing streams of dry and wet nitrogen, with a total flow rate of 200 ml/min. The relative humidity was measured by a calibrated Rotronic probe (dynamic range of 1.0-100% RH), located near the sample. The weight change, (mass relaxation) of the sample as a function of % RH was constantly monitored by the microbalance (accuracy ±0.005 mg).
Typically 10 mg of sample was placed in a tared mesh stainless steel basket under ambient conditions. The sample was loaded and unloaded at 40% RH and 25° C. (typical room conditions). A moisture sorption isotherm was performed as outlined below (2 scans giving 1 complete cycle). The standard isotherm was performed at 25° C. at 10% RH intervals over a 0-90% RH range. Data analysis was undertaken in Microsoft Excel using DVS Analysis Suite v6.0.0.7.

[2] = Hygroscopicity of solid forms of compound (V), qualitative comparison; format: physicochemical; conditions: solid form; amorphous solid made according to US 20090274713 as comparator
Description: In one embodiment, the invention is directed to new crystalline forms of the compound of formula (V), e.g., Crystalline Forms 1, 2a, 2b and 3 as described below.

weight gain, second adsorption profile (GVS) ([1]; between 0% RH and 40% RH) [%]	weight gain, adsorption profile (GVS) [1] [%]	weight loss, desorption profile (GVS) [1] [%]	SMILES	hygroscopicity [2]
0.4	25	29.4	O=C(ON1C(=O)CCC1=O)C(CCSSc1ccccn1)S(=O)(=O)O (stereo not drawn) [Crystalline Form 3, N-succinimidyl 4-(2′-pyridyldithio)-2-sulfobutanoate]	significantly less hygroscopic than the amorphous solid
			O=C(ON1C(=O)CCC1=O)C(CCSSc1ccccn1)S(=O)(=O)O (stereo not drawn) [Compound of formula (V), N-succinimidyl 4-(2′-pyridyldithio)-2-sulfobutanoate]	highly hygroscopic
	1.8	2.4	O=C(ON1C(=O)CCC1=O)C(CCSSc1ccccn1)S(=O)(=O)O (stereo not drawn) [Crystalline Form 2a, N-succinimidyl 4-(2′-pyridyldithio)-2-sulfobutanoate]	significantly less hygroscopic than the amorphous solid
			O=C(ON1C(=O)CCC1=O)C(CCSSc1ccccn1)S(=O)(=O)O (stereo not drawn) [Crystalline Form 2b, N-succinimidyl 4-(2′-pyridyldithio)-2-sulfobutanoate]	significantly less hygroscopic than the amorphous solid
	1.6	1.9	O=C(ON1C(=O)CCC1=O)C(CCSSc1ccccn1)S(=O)(=O)O (stereo not drawn) [Crystalline Form 1, N-succinimidyl 4-(2′-pyridyldithio)-2-sulfobutanoate]	significantly less hygroscopic than the amorphous solid
